pEC50: −log10 of the molar value.

The species named for this test is Rattus norvegicus. The test is described as follows: Dose response for [Ca2+] release from rat brain microsomes was determined. The class given is functional.

Consider `Nc1c2ncn3c2nc[n+]1[C@@H]1O[C@H](COP(=O)([O-])OP(=O)(O)OC[C@H]2O[C@@H]3[C@H](O)[C@@H]2O)[C@@H](O)[C@H]1O`, for which the pEC50 (usually the negative decadic logarithm of the EC50, by convention in mol/L) was 4.66.

`O=P(O)(O)O[C@@H]1[C@H](O)[C@H](O)[C@@H](OP(=O)(O)O)[C@H](OP(=O)(O)O)[C@H]1O` [INS(1,4,5)P3] showed a pEC50 of 7.05. Then `O=P1([O-])OC[C@H]2OC([C@H](O)[C@@H]2O)[n+]2ccn3cnc4c(ncn4C4O[C@H](COP(=O)(O)O1)[C@@H](O)[C@H]4O)c32`, with 5.10.

These data come from ChEMBL document CHEMBL1129177, “Novel analogs of cyclic-ADP-ribose: 9-Cyclic etheno-ADP-ribose and cyclic etheno-CDP-ribose” (Bioorg Med Chem Lett, 1996).
